# Values of other authors in patent US7084135B1, “Prenyl transferase inhibitors” (Societe de Conseils de Recherches et d'Applications …, priority 1998, dated 2006).
# Legend:
# HT29, adenocarcinoma = conditions: Colon: HT29, adenocarcinoma with Wild Type ras (WT)
# DU145 adenocarcinoma = conditions: Prostate: DU145 adenocarcinoma, with WT ras
structure (smiles),measurement,setting,value
CC[C@H](C)[C@@H](COC(Cc1ccccc1)C(=O)N[C@@H](CCS(C)(=O)=O)C(=O)OC(C)C)NC[C@@H](N)CS (some centres unmarked) [Compound L744-832],sensitivity of cell line to L744-832,"HT29, adenocarcinoma",sensitive
same,sensitivity of cell line to L744-832,DU145 adenocarcinoma,resistant
